US6864286B2, “Inhibitors of the EGF-receptor tyrosine kinase and methods for their use” (Parker Hughes Institute, priority 1998, dated 2005)
Entries after “also recorded” stand apart in the source; their conditions may differ.

Key:
EGFR tyrosine kinase = molecular target: T1, EGFR tyrosine kinase (Homo sapiens, UniProt P00533); assay: Cell-free EGFR immune complex kinase assay; assay type: biochemical; settings: EGFR immunoprecipitated from MDA-MB-231 lysates, 1 hour incubation, read-out: EGFR Inhibition IC50
T1 construct: anti-EGFR immunoprecipitates from lysates of MDA-MB-231 human breast cancer cells; endogenous in cells; host or cells: MDA-MB-231 (ATCC HTB-26)
T1 sequence (P00533 25-1210): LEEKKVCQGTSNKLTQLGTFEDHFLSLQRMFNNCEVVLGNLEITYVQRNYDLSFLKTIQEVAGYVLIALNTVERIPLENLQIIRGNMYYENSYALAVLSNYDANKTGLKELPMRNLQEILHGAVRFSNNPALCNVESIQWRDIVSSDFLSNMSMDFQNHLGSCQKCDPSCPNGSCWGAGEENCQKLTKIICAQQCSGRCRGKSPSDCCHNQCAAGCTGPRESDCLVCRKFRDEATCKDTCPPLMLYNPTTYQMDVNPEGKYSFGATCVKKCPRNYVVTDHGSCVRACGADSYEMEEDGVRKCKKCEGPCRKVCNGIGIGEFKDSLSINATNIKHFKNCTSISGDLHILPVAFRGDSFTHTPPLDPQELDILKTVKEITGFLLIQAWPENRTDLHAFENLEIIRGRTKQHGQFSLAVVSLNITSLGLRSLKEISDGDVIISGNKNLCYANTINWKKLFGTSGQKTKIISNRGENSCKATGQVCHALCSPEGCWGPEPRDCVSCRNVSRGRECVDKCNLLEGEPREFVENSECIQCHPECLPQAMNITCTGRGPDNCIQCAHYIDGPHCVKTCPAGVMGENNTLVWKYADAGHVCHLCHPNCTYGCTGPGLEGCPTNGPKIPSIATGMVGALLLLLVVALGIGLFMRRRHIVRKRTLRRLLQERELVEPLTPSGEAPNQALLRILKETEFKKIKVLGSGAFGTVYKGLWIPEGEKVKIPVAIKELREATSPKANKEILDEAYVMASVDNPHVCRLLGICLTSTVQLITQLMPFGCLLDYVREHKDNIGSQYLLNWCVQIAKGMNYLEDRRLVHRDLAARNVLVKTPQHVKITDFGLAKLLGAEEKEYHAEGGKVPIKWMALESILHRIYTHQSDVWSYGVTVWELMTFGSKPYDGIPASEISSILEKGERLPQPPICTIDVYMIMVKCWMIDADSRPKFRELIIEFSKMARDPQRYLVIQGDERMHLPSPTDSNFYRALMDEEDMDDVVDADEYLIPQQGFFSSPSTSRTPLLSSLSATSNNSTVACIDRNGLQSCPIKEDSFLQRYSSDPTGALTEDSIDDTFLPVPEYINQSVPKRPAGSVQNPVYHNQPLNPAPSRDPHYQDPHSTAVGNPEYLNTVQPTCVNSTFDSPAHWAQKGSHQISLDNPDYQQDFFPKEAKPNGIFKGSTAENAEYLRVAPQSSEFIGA
Description: For EGFR immune complex kinase assays, 24-hours after treatment with leflunomide analogs, MDA-MB-231 breast cancer cells were stimulated with 20 ng/mL EGF for 5 minutes, lysed in 1% Nonidet-P-40 buffer, and cell lysates were immunoprecipitated with an anti-EGFR antibody reactive with the sequence Ala^351-Asp^364 of the human EGFR (Upstate Biotechnology Inc. [UBI] Catalog # 05-104) (Uckun, F. M., et al. Clin. Can. Res. 1998, 4, 901). EGFR immune complexes were examined for tyrosine phosphorylation by Western blot analysis, as described by Uckun, F. M., et al. Clin. Can. Res. 1998, 4, 901. All anti-phosphotyrosine Western blots were subjected to densitometric scanning using the automated AMBIS system (Automated Microbiology System, Inc., San Diego, Calif.) and for each time point a % inhibition value was determined by comparing the density ratios of the tyrosine phosphorylated EGFR protein bands to those of the baseline sample and using the formula: % Inhibition=100−100×[Density of tyrosine phosphorylated EGFR band]test sample/[Density of tyrosine phosphorylated EGFR band]baseline control sample. The IC50 values were determined using an Inplot program (Graphpad Software, Inc., San Diego, Calif.).
In other experiments, MDA-MB-231 cells were stimulated with 10 ng/ml EGF prior to immunoprecipitation of the EGFR. EGFR immune complexes were incubated for 1 hour at room temperature with various LFM analogs and tyrosine kinase assays were performed in the presence of [γ-^32P]-ATP, as previously described (Uckun, F. M., et al. Clin. Can. Res. 1998, 4, 901; Narla, R. K., et al. Clin. Can. Res 1998, 1405; Uckun, F. M., et al. Science 1996, 22, 1096; Uckun, F. M., et al. Science 1995, 267, 886). The kinase assay gels were analyzed both by autoradiography and using the BioRad Storage Phosphor Imager System (BioRad, Hercules, Calif.) for quantitative scanning.

HCK = molecular target: T2, HCK (Homo sapiens, UniProt P08631); assay: Cell-free HCK immune complex kinase assay; assay type: biochemical; settings: for effect on enzymatic activity of HCK: at concentrations as high as 350 μM, HCK from transfected COS7 cells
T2 construct: expressed in transfected cells; host or cells: COS-7 simian kidney cells
T2 sequence (P08631 whole entry, species assumed): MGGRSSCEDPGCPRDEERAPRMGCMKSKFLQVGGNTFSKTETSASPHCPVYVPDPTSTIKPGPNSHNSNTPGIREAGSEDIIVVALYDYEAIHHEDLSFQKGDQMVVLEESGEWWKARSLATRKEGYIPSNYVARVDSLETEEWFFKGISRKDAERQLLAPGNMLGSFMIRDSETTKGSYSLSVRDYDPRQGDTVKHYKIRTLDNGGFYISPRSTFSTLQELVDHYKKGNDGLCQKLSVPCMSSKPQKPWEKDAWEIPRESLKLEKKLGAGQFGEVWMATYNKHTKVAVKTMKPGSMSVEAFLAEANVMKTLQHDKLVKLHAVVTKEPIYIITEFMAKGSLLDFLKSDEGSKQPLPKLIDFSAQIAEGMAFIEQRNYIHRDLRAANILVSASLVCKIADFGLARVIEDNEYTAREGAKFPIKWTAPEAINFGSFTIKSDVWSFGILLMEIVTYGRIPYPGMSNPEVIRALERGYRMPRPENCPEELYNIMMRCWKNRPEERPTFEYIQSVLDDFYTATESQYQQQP
Description: Immunoprecipitations, immune-complex protein kinase assays, and immunoblotting using the ECL chemiluminescence detection system (Amersham Life Sciences) were conducted as described previously (Vassilev, A., et al. J. Biol. Chem. 1998, in press; Goodman, P. A., et al. J. Biol. Chem. 1998, 273, 17742; Mahajan, S., et al. Mol. Cell. Biol. 1995, 15, 5304; Uckun, F. M., et al. Science 1996, 22, 1096).
For HCK kinase assays, we used HCK-transfected COS-7 cells. The cloning and expression of HCK in COS-7 cells has been described previously (Saouaf, S. J., et al. J. Biol. Chem. 1995, 270, 27072). The pSV7c-HCK plasmid was transfected into 2×10^6 COS-7 cells using Lipofectamine (GIBCO/BRL), and the cells were harvested 48 hours later. The cells were lysed in NP-40 buffer and HCK was immunoprecipitated from the whole cell lysates with an anti-HCK antibody.

MDA-MB-231 cells = assay: MTT cytotoxicity assay, MDA-MB-231; assay type: cell-based; settings: Homo sapiens, 36 hours, read-out: Cancer Cell Cytotoxicity IC50 MDA-MB-231
Description: (§1) In order to determine the cytotoxic activity of LFM and its analogs against breast cancer cells, cells in alpha-MEM supplemented with 10% (v/v) fetal calf serum were treated with various concentrations of the compounds for 24 hours at 37° C., washed twice in alpha-MEM, and then used in either MTT assays or in vitro invasion assays, as described hereinafter.
The cytotoxicity of various compounds against human breast cancer cell lines was analyzed using the MTT (3-[4,5-dimethylthiazol-2-yl]-2,5-diphenyl tetrazolium bromide) assay (Boehringer Mannheim Corp., Indianapolis, Ind.). Uckun F. M., et al. Clin. Cancer Res. 1998, 4, 901-912. Exponentially growing breast cancer cells were seeded into a 96-well plate at a density of 2.5×10^4 cells/well and incubated for 36 hours at 37° C. prior to drug exposure. On the day of treatment, culture medium was carefully aspirated from the wells and replaced with fresh medium containing the LFM analogs at concentrations ranging from 2 to 250 μM. Triplicate wells were used for each treatment. The cells were incubated with the various compounds for 36 hours at 37° C. in a humidified 5% CO2 atmosphere. To each well, 10 μl of MTT (0.5 mg/ml final concentration) was added and the plates were incubated at 37° C. for 4 hours to allow MTT to form formazan crystals by reacting with metabolically active cells. The formazan crystals were solubilized overnight at 37° C. in a solution containing 10% SDS in 0.01 M HCl. The absorbence of each well was measured in a microplate reader (Labsystems) at 540 nm and a reference wavelength of 690 nm.
To translate the absorbance A540 values into the number of live cells in each well, the A540 values were compared to those on standard A540-versus-cell number curves generated for each cell line. The percent survival was calculated using the formula: % survival=Live cell number[test]/Live cell number [control]×100. The IC50 values were calculated by non-linear regression analysis using an Graphpad Prism software version 2.0 (Graphpad Software, Inc., San Diego, Calif.).

MDA-MB-361 cells = assay: In vitro clonogenic assay, MDA-MB-361; assay type: cell-based, human; settings: 24 hour treatment; for inhibition at 0.1 µM / inhibition at 10 µM / inhibition at 100 µM: Homo sapiens
Description: as §1
After treatment with LFM analogs, cells were resuspended in clonogenic medium consisting of alpha-MEM supplemented with 0.9% methylcellulose, 30% fetal bovine serum, and 50 μM 2-mercaptoethanol. Cells were plated in duplicate Petri dishes at 100,000 cells/mL/dish and cultured in a humidified 5% CO2 incubator for 7 days. Cancer cell colonies were enumerated on a grid using an inverted phase microscope of high optical resolution (Uckun F. M., et al. Clin. Cancer Res. 1998, 4, 901-912; and Kuo). Results were expressed as % inhibition of clonogenic cells at a particular concentration of the test agent using the formula: % Inhibition=(1-Mean # of colonies [Test]/Mean # of colonies [Control])×100. Furthermore, the dose survival curves were constructed using the percent control survival (=Mean # of colonies[Test]/Mean # of colonies [Control]×100) results for each drug concentration as the data points and the IC50 values were calculated. The IC50 values were determined using an Prism Version II Inplot program (Graphpad Software, Inc., San Diego, Calif.).

| Compound | IC50 (EGFR tyrosine kinase) [µM] | effect on enzymatic activity of HCK (HCK) | IC50 (MDA-MB-231 cells) [µM] | inhibition at 0.1 µM (MDA-MB-361 cells; MDA-MB-361, 0.1 μM) [%] | inhibition at 10 µM (MDA-MB-361 cells; MDA-MB-361, 10 μM) [%] | inhibition at 100 µM (MDA-MB-361 cells; MDA-MB-361, 100 μM) [%] | Tumor Cell Colonies/10^5 Cells (MDA-MB-361 cells; MDA-MB-361, 0.1 μM) | Tumor Cell Colonies/10^5 Cells (MDA-MB-361 cells; MDA-MB-361, 10 μM) | Tumor Cell Colonies/10^5 Cells (MDA-MB-361 cells; MDA-MB-361, 100 μM) | IC50 (HCK; HCK, cell-free, read-out: Inhibition IC50) [µM] |
| --- | --- | --- | --- | --- | --- | --- | --- | --- | --- | --- |
| CC(O)=C(C#N)C(=O)Nc1ccc(C(F)(F)F)cc1 [LFM, α-Cyano-β-hydroxy-β-methyl-N-[4-(trifluoromethyl)phenyl]-propenamide, reference compound] | 5.4 | did not affect the enzymatic activity; also recorded: lack of inhibition | 199 | 27.3 | 51.5 | 82.3 | 803 | 535 | 196 |  |
| C/C(O)=C(\C#N)C(=O)Nc1ccc(OC(F)(F)F)cc1 [LFM-A12, α-Cyano-β-hydroxy-β-methyl-N-[4-(trifluoromethoxy)phenyl]-propenamide] | 1.7 | did not affect the enzymatic activity; also recorded: lack of inhibition | 53.4 | 32.4 | 60.2 | 87.3 | 746 | 440 | 140 | > 350 |
